Results as given in the Deep4Chem optical property database.
Values belong to the compound of their own block, whether it stands above or below them.

Test: solvent given as SMILES
[1] = in O=P(c1ccccc1)(c1ccccc1)c1ccccc1Oc1ccccc1P(=O)(c1ccccc1)c1ccccc1

emission maximum (in ClC(Cl)Cl): 576 nm
SMILES: CCCCCCCCc1ccc(-c2c3cc(-c4cc(CCCCCCCC)c(-c5ccc(-c6sc(/C=C7\SC(N8CCCCC8)=NC7=O)cc6CCCCCCCC)s5)s4)sc3c(-c3ccc(CCCCCCCC)s3)c3cc(-c4cc(CCCCCCCC)c(-c5ccc(-c6sc(/C=C7\SC(N8CCCCC8)=NC7=O)cc6CCCCCCCC)s5)s4)sc23)s1

emission maximum (in O): 690 nm
SMILES: CCN1CCCc2cc3c(cc21)Oc1cc2c(cc1=N3)C(CS(=O)(=O)[O-])CC(C)(C)[N+]=2CCCC(=O)[O-] (configuration not stated)

emission maximum (in ClC(Cl)Cl): 615 nm
SMILES: CC(C)(C)c1ccc(Oc2cc3c4c(cc(Oc5ccc(C(C)(C)C)cc5)c5c6c(Oc7ccc(C(C)(C)C)cc7)cc7c8c(cc(Oc9ccc(C(C)(C)C)cc9)c(c2c45)c86)C(=O)OC7=O)C(=O)OC3=O)cc1

SMILES: N#Cc1c(-n2c3ccccc3c3ccccc32)cccc1-n1c2ccccc2c2ccccc21
emission maximum (in Cc1ccccc1): 403 nm
emission maximum [1]: 415 nm

emission maximum (in C1CCOC1): 502 nm
emission maximum (in CC#N): 523 nm
emission maximum (in CCO): 515 nm
emission maximum (in CCOC(C)=O): 502 nm
emission maximum (in CN(C)C=O): 524 nm
emission maximum (in ClCCl): 518 nm
emission maximum (in c1ccccc1): 485 nm
SMILES: O=C(c1ccc(N(c2ccccc2)c2ccccc2)cc1)[C@H]1[C@H](c2ccc(F)cc2)C[C@](O)(c2ccccn2)C[C@]1(O)c1ccccn1

emission maximum (in CC#N): 573 nm
emission maximum (in CCO): 578 nm
emission maximum (in CN(C)C=O): 574 nm
emission maximum (in O): 588 nm
SMILES: CCN(CC)c1ccc2c(-c3ccc(S(=O)(=O)[O-])cc3S(=O)(=O)[O-])c3ccc(=[N+](CC)CC)cc-3oc2c1

SMILES: c1ccc2c(c1)CCc1c-2cnc2c1-c1ccccc1CC2
emission maximum (in C1CCOC1): 356 nm
emission maximum (in CC#N): 358 nm
emission maximum (in CCCCCC): 358 nm
emission maximum (in CCOC(C)=O): 358 nm
emission maximum (in CO): 361 nm
emission maximum (in CS(C)=O): 360 nm
emission maximum (in Cc1ccccc1): 362 nm
emission maximum (in ClCCl): 363 nm

emission maximum (in CCO): 564 nm
emission maximum (in O): 575 nm
SMILES: CN(C)c1ccc2c(-c3cc(C(=O)[O-])ccc3C(=O)[O-])c3ccc(=[N+](C)C)cc-3oc2c1

emission maximum (in C1COCCO1): 425 nm
emission maximum (in CC#N): 436 nm
emission maximum (in CCCO): 495 nm
emission maximum (in CCO): 500 nm
emission maximum (in CN(C)C=O): 473 nm
emission maximum (in CO): 510 nm
emission maximum (in CS(C)=O): 480 nm
emission maximum (in ClC(Cl)Cl): 462 nm
emission maximum (in ClCCl): 460 nm
SMILES: COc1ccc(/C=C/C(=O)c2ccccc2O)cc1OC

emission maximum (in ClCCl): 453 nm
SMILES: N#CC(C#N)=Cc1ccc2c(c1)c1cc(C=C(C#N)C#N)ccc1n2-c1cccc2ccccc12

SMILES: CCCCCC(CC)C1(C(CC)CCCCC)c2ccccc2-c2ccc(C#Cc3cc(C#Cc4ccc5c(c4)C(C(CC)CCCCC)(C(CC)CCCCC)c4ccccc4-5)c4ccc5c(C#Cc6ccc7c(c6)C(C(CC)CCCCC)(C(CC)CCCCC)c6ccccc6-7)cc(C#Cc6ccc7c(c6)C(C(CC)CCCCC)(C(CC)CCCCC)c6ccccc6-7)c6ccc3c4c65)cc21 (configuration not stated)
emission maximum (in C1CCCCC1): 507 nm
emission maximum (in C1CCOC1): 513 nm
emission maximum (in CCOC(C)=O): 509 nm
emission maximum (in CN(C)C=O): 518 nm
emission maximum (in Cc1ccccc1): 513 nm
emission maximum (in ClC(Cl)Cl): 514 nm
emission maximum (in ClCCl): 514 nm

SMILES: c1ccc(N(c2ccccc2)c2ccc(-c3cccc4nc5ccccc5cc34)cc2)cc1
emission maximum (in C1CCOC1): 535 nm
emission maximum (in CC#N): 572 nm
emission maximum (in CC(C)OC(C)C): 496 nm
emission maximum (in CCCCCC): 462 nm
emission maximum (in CCCCOCCCC): 491 nm
emission maximum (in CCN(CC)CC): 479 nm
emission maximum (in CCOC(C)=O): 532 nm
emission maximum (in CCOCC): 507 nm
emission maximum (in CN(C)C=O): 566 nm
emission maximum (in ClCCl): 555 nm

emission maximum (in ClC(Cl)Cl): 597 nm
SMILES: CCCCCCCCCCCCOc1cc2c3c(ccc4c5c(OCCCCCCCCCCCC)cc6c7c(ccc(c1c34)c75)C(=O)N(C1CCCCC1)C6=O)C(=O)N(C1CCCCC1)C2=O

emission maximum (in ClCCl): 653 nm
SMILES: Cc1ccc(-c2c3nc(c(-c4ccc(C)cc4)c4ccc([nH]4)c(-c4ccc(OC(=O)C(C)c5ccccc5)cc4)c4nc(c(-c5ccc(C)cc5)c5ccc2[nH]5)C=C4)C=C3)cc1 (configuration not stated)

emission maximum (in O): 451 nm
SMILES: C=CC1CN2CCC1CC2[C@H](O)c1ccnc2ccc(OC)cc12 (some centres not stated)

SMILES: c1ccc2c(c1)Cc1ccccc1N2c1c2ccccc2c(N2c3ccccc3Cc3ccccc32)c2ccccc12
emission maximum (in Cc1ccccc1): 553 nm

SMILES: CCCCCCOc1ccc(C#Cc2ccc(C#CC#Cc3ccc(C#Cc4ccc(OCCCCCC)c(OCCCCCC)c4)c4nsnc34)c3nsnc23)cc1OCCCCCC
emission maximum (in CN(C)C=O): 638 nm
emission maximum (in COc1ccccc1): 555 nm
emission maximum (in Cc1ccccc1): 528 nm
emission maximum (in ClC(Cl)Cl): 563 nm
emission maximum (in ClCCCl): 591 nm
emission maximum (in ClCCl): 582 nm

SMILES: C[Si](C)(C)C#Cc1cc2ccc3cc(C#C[Si](C)(C)C)cc4ccc(c1)c2c34
emission maximum (in Cc1ccccc1): 407 nm

SMILES: COc1ccc2c3c(cccc13)C(=O)c1ccccc1-2
emission maximum (in CC#N): 526.87 nm
emission maximum (in CC(C)=O): 520.02 nm
emission maximum (in CC(C)O): 541.13 nm
emission maximum (in CCCCOCCCC): 487.09 nm
emission maximum (in CCOC(C)=O): 506.07 nm
emission maximum (in CCOCC): 498.01 nm
emission maximum (in CO): 560.85 nm
emission maximum (in Cc1ccccc1): 500 nm
emission maximum (in Clc1ccccc1): 507.87 nm
emission maximum (in N#Cc1ccccc1): 520.02 nm
emission maximum (in O=C1CCCCC1): 520.02 nm

emission maximum (in ClCCl): 636 nm
SMILES: Cn1c2ccccc2c2cc(/C=C/C3=[O+][B-](F)(F)OC(/C=C/c4ccc5c(c4)c4ccccc4n5C)=C3c3ccccc3)ccc21

emission maximum (in C1CCOC1): 345 nm
emission maximum (in C1COCCO1): 342 nm
emission maximum (in CC#N): 354 nm
emission maximum (in CC(C)O): 356 nm
emission maximum (in CCO): 358 nm
emission maximum (in CO): 367 nm
emission maximum (in CS(C)=O): 363 nm
emission maximum (in O): 375 nm
emission maximum (in OCC(F)(F)F): 364 nm
SMILES: N#Cc1ccc2cc[nH]c2c1

emission maximum (in ClCCl): 619 nm
SMILES: c1ccc(CSc2c3ccc(=[N+]4CCCCC4)cc-3oc3cc(N4CCCCC4)ccc23)cc1

emission maximum (in CC#N): 500 nm
SMILES: C[C@]12SC(=O)C=C1c1nc(-c3ccc(Cl)cc3Cl)[nH]c1C1=CC(=O)S[C@@]12C

emission maximum (in ClCCl): 611 nm
SMILES: Cc1cccc2[n+]1[B-](c1ccccc1)(c1ccccc1)c1cccc3c4c5c(cccc5c-2c13)[B-](c1ccccc1)(c1ccccc1)[n+]1c(C)cccc1-4

emission maximum (in CC#N): 435 nm
SMILES: N#Cc1nn(-c2cc(F)cc(F)c2)nc1N1CCCC1

emission maximum (in ClC(Cl)Cl): 580 nm
SMILES: CCCCN1C(=O)c2cc(Br)c3c4c(Br)c(Br)c5c6c(cc(Br)c(c7c(Br)c(Br)c(c2c37)C1=O)c64)C(=O)N(CCCC)C5=O

emission maximum (in C1CCOC1): 384 nm
SMILES: CC(C)(C)c1ccc2c(c1)c1cc(C(C)(C)C)cc3c1n2B1c2c-3cccc2-c2cc(C(C)(C)C)cc3c4cc(C(C)(C)C)ccc4n1c23

emission maximum (in CO): 384 nm
SMILES: N[C@@H](Cn1nnc2cc(-c3ccc(N4CCOCC4)cc3)ccc21)C(=O)O

emission maximum (in ClCCl): 541 nm
SMILES: O=[N+]([O-])c1ccc(O)c(-c2nc3c(c4c2-c2ccccc2CC4)-c2ccccc2CC3)c1

emission maximum (in CC#N): 444 nm
SMILES: c1ccc(N(c2ccccc2)c2ccc(-c3nc4ccccc4n3-c3ccccc3)cc2)cc1

emission maximum (in ClCCl): 570 nm
SMILES: CCCCCCCCOc1cc(/C=C/c2cc(OCCCCCCCC)c(/C=C/c3cc(OCCCCCCCC)c(/C=C/c4ccncc4)cc3OCCCCCCCC)cc2OCCCCCCCC)c(OCCCCCCCC)cc1/C=C/c1ccncc1

emission maximum (in ClCCl): 520 nm
SMILES: C[Si]1(C)O[Si](C)(C)c2cc3nc4ccc([N+](=O)[O-])cc4c(-c4ccccc4)c3cc2[Si](C)(C)O1

emission maximum (in ClCCl): 420 nm
SMILES: CCOC(=O)c1c(-c2c(Cl)c3cc(C)ccc3oc2=O)nn(-c2cccc(Cl)c2)c1C(=O)OCC

emission maximum (in C1CCCCC1): 359 nm
SMILES: CCCC1(CCC)c2cc(-c3cccc(Cc4ccc(/C=C/c5ccccc5)cc4)c3)ccc2-c2ccc(-c3cccc(Cc4ccc(/C=C/c5ccccc5)cc4)c3)cc21

emission maximum (in ClC(Cl)Cl): 835 nm
SMILES: CCCCCCCCCCOc1cc(OCCCCCCCCCC)cc(C2=C3C(/C=C/c4ccc(N(C)C)cc4)=C(C#Cc4ccc(C(C)(C)C)cc4)C(/C=C/c4ccc(N(C)C)cc4)=[N+]3[B-](F)(F)n3c(/C=C/c4ccc(N(C)C)cc4)c(C#Cc4ccc(C(C)(C)C)cc4)c(/C=C/c4ccc(N(C)C)cc4)c32)c1

emission maximum (in ClC(Cl)Cl): 541 nm
SMILES: CCCCCCCCc1ccc(-c2ccc(-c3cc(-c4ccc(-c5ccc(CCCCCCCC)s5)c5nsnc45)c4ccc5c(-c6ccc(-c7ccc(CCCCCCCC)s7)c7nsnc67)cc(-c6ccc(-c7ccc(CCCCCCCC)s7)c7nsnc67)c6ccc3c4c65)c3nsnc23)s1

emission maximum (in ClCCl): 608 nm
SMILES: CCOC(=O)CCCCCn1c2ccc(N)cc2c(=O)c2cc3c(cc21)c(=O)c1cc(N)ccc1n3CCCCCC(=O)OCC

emission maximum (in ClCCl): 430 nm
SMILES: CCOC(=O)C1=C(C(=O)OCC)C2(c3ccccc3-c3ccccc32)[C@@H](c2ccc([N+](=O)[O-])cc2)C=C2c3cc(OC)c(OC)cc3CCN21

emission maximum (in CS(C)=O): 542 nm
emission maximum (in ClC(Cl)Cl): 504 nm
SMILES: CCCCCCn1c2ccccc2c2cc(/C=C/c3cc(=O)oc4cc(C)ccc34)ccc21

emission maximum (in CN(C)C=O): 430 nm
SMILES: O=C([O-])c1ccc(C(=O)[O-])c2cc3ccccc3cc12

SMILES: c1ccc(-c2nnc(-c3ccc(N4c5ccccc5N(c5ccccc5)c5ccccc54)cc3)o2)cc1
emission maximum (in Cc1ccccc1): 577 nm
emission maximum (in c1cc(-n2c3ccccc3c3ccccc32)cc(-n2c3ccccc3c3ccccc32)c1): 550 nm

emission maximum (in C1CCCCC1): 535 nm
emission maximum (in ClC(Cl)Cl): 727 nm
SMILES: CN(C)c1ccc2nc(-c3ccc(C=C4C(=O)c5ccccc5C4=O)cc3)sc2c1

emission maximum (in C1CCOC1): 560 nm
emission maximum (in CC#N): 606 nm
emission maximum (in CCCCCC): 492 nm
SMILES: CC1=N/C(=C\c2cc(N(C)C)ccc2C#N)C(=O)N1C

SMILES: O=S1(=O)c2ccccc2Oc2cc(N3c4ccccc4C4(c5ccccc53)c3ccccc3N(c3ccc5c(c3)Oc3ccccc3S5(=O)=O)c3ccccc34)ccc21
emission maximum (in Cc1ccccc1): 439.83 nm
emission maximum [1]: 464.9 nm

emission maximum (in CS(C)=O): 562 nm
emission maximum (in ClCCl): 528 nm
SMILES: CCCCCCCCCCCCN(CCCCCCCCCCCC)c1ccc2c(c1)oc(=O)c1c(=O)oc3ccccc3c12

SMILES: CCN(CC)c1ccc(/C=C/C(=O)c2c(O)cc(C)oc2=O)cc1
emission maximum (in CC#N): 562 nm
emission maximum (in CCCO): 562 nm
emission maximum (in CCO): 570 nm
emission maximum (in CCOC(C)=O): 545 nm
emission maximum (in Cc1ccccc1): 534 nm
emission maximum (in ClCCl): 575 nm
